The text below walks through data of patent US4120947A, “Xanthine compounds and method of treating bronchospastic and allergic diseases” (priority 1976, dated 1978).

“Also recorded” adds a separate entry of the source. Read-outs that look alike come from different tables or passages of the source.

Series [1] has as its system histamine-induced bronchoconstriction in the guinea pig. The series is described as follows: BD: bronchodilator activity against histamine-induced bronchoconstriction in the guinea pig. The following applies: for inhibition in vivo at 10 mg/kg / inhibition in vivo at 20 mg/kg: Cavia porcellus, po, read-out: BD (guinea pig), % protection. The text has this:
BD Bronchodilator activity evaluated against histamine-induced bronchoconstriction in the guinea pig, and expressed as % protection at the stated time interval (in minutes and hours) post-drug against histamine agonist. Doses are expressed in milligrams per kilogram of body weight (mpk) per os (po) or intraperitoneally (ip).
A modification of the method of Siegmund. O.H., et al., J. Pharmacol. and Exp. Therap. 90:254-9, 1947, is used. Healthy guinea pigs weighing from 250 to 300 grams are placed four at a time and separated by wiring screening in an 11 liter plastic chamber, at the time of peak activity following drug administration. The challenge consists of histamine diphosphate (1% solution) aerosolized in a de Vilbiss -40 nebulizer at 200 mm Hg. Times for prostration are recorded.
Per cent protection is calculated as follows: [formula] wherein the times are measured in seconds.
In interpreting the BD data it should be noted that a dose giving less than 40-50% protection is not considered useful. Differences in percent protection of less than 10% are probably not significant.

Another series is described as follows: in vivo. As for the experimental part: (§1) The LD50 was determined in three species, the mouse (male, 18-25 g), the albino rat (female, 150-200 g) and the albino guinea pig (male 180-280 g) by oral administration and in the albino rat by intraperitoneal administration. The animals are fasted overnight prior to testing. Six groups of ten animals are used; five groups are dosed with the test substance, the sixth group serves as a control and receives the drug vehicle at the highest test concentration. The compounds were administered in a 0.5% gum tragacanth solution in distilled water using a constant logarithmic increment in dose. Dose volume ranged from […].
(§2) The animals were housed five per cage (rat and guinea pig) or ten per cage (mouse) with free access to food and water. The number of dead animals was recorded daily for five consecutive days. The total mortality per group of ten for each dose level was recorded and LD50 with Confidence Limits calculated according to the method described by Weil, C.

A short description of another series: LD50 mouse. It counts as in vivo. Conditions: in vivo, po. As for the experimental part:
as §1, §2

Series [2] concerns guinea pig tracheal chain preparation. Briefly: SP: spasmolytic activity in vitro, guinea pig tracheal chain preparation. Conditions: Cavia porcellus, read-out: SP in vitro C, molar concentration required to produce maximum relaxation. An excerpt: SP Spasmolytic activity evaluated in vitro using guinea pig tracheal chain preparation, and expressed as the molar (M) concentration required to produce maximum relaxation. The method used in that of Castillo and de Beer, J. Pharmac. Expt. Therap. 90, 104, 1947.

The subject of a further series is albino rat. Briefly: in vivo. As for the experimental part:
as §1, §2

For series [3], the system named is histamine-induced bronchoconstriction in the dog. The series is described as follows: CP: cardiopulmonary activity against histamine-induced bronchoconstriction in the dog. It counts as in vivo. The following applies: histamine challenge. An excerpt: Pretreatment with bronchodilator drugs aims to block the bronchospastic response to histamine. Each dog serves as its own control.

Series [4] relates to passive cutaneous anaphylaxis in the rat. Briefly: PCA: passive cutaneous anaphylaxis in the rat. It counts as in vivo. The following applies: for antiallergy activity, in words: rat passive cutaneous anaphylaxis. The protocol:
PCA Antianaphylactic activity against passive cutaneous anaphylaxis in the rat, expressed as % protection against antigen-induced wheal formation.
The method used is that of Ogilvie, B. M., Immunology 12, 113-131 (1967). Reaginic […] antibodies develope in the rat following subcutaneous injection of Nippostrongylus brasiliensis larvae. Antisera, collected 28 days later are injected subcutaneously into new rats.

Another series deals with mouse. Briefly: LD50 mouse. It counts as in vivo. As for the experimental part:
as §1, §2

The test system of series [5] is antigen-induced bronchconstriction in rats sensitized with N. brasliensis. The series is described as follows: AA: antiallergy (anti-anaphylactic) activity against antigen-induced bronchoconstriction in sensitized rats.
Source text: The animals are subdivided into control and test groups. Test animals receive a drug either orally, intraperitoneally or intravenously and are challenged with intravenous antigen at fixed time intervals after dosing. Antigen-induced increases in tracheal pressure are monitored and reflect the extent of bronchoconstriction.
Where [6] appears, read: guinea pig, comparison with corresponding compound.
Setting [7] is: Rattus norvegicus, ip, 1 h, read-out: AA (rat), % protection.
[8] abbreviates: Rattus norvegicus, po, 1 h, read-out: AA (rat), % protection.

Consider `CCC(C)Cn1c(=O)n(C)c(=O)c2[nH]c(C)nc21` (stereo not drawn) [Compound 4383, 1,8-dimethyl-3-(2-methyl-1-butyl)xanthine], for which the “BD (guinea pig), % protection” value was found to be 35% in series [1] (10 mpK po, 30'); 100% in series [1] (20 mpK po, 4h); 97% in [1] (20 mpK po, 6h). Further, the inhibition in vivo at 10 mg/kg in series [1] (1 h) turned out to be 63%. Further, the median lethal dose (LD50) in “in vivo” (in vivo, rat, po) is 887 mg/kg; in “LD50 mouse”, 60.6 mg/kg.

Turning to `CCC(C)Cn1c(=O)n(C)c(=O)c2c1nc(C)n2C(=O)OC` (stereo not drawn) [Compound 4387, 1,8-dimethyl-3-(2-methyl-1-butyl)-7-carbomethoxyxanthine], the EC (maximum relaxation) in series [2] is 1000 µM. In addition, the inhibition in vivo at 10 mg/kg in series [1] (0.5 h) turned out to be 44%; in series [1] (1 h), 87%; in series [1] (6 h), 59%; in series [1] (10 h) it was 37%; in series [5] (setting [8]), 57%. Further, the values for the inhibition in vivo at 20 mg/kg in series [1] (1 h) and in series [1] (6 h) were 94% and 92%, respectively. Moreover, the “bronchodilator effectiveness, in words” value in series [1] (setting [6]) is on record as “shows greater activity; also recorded: about as effective as the corresponding 3-isobutyl compound (4390)”. The “onset and duration of action, in words” value in series [1] (setting [6]) is “effective at lower doses and for longer duration”. Besides, the 50% lethal dose (LD50) is 27.4 mg/kg in the series “in vivo” (guinea pig, po); 18.3 mg/kg in “in vivo” (in vivo, rat, ip); 60 mg/kg in “in vivo” (in vivo, rat, po); 54.9 mg/kg in the series “LD50 mouse”. Besides, the “lethality relative to 4390” value in the series with albino rat and in the series on mouse was “about one-half” each time. Besides, the “cardiopulmonary / bronchodilator activity in the dog, in words” value in series [3] was “significantly reduce the decrease in pulmonary compliance and increase in pulmonary resistance due to histamine administration; also recorded: about as effective as the corresponding 3-isobutyl compound (4390)”. In addition, the “Wheal Diameter, % Δ” value in series [4] (10 mg/kg po) amounted to 41%; in series [4] (20 mg/kg po), 57%. The “Wheal Diameter, Response (Mean ± S.E.M.)” value was 1.41 ± 0.17 cm in series [4] (10 mg/kg po) and 0.81 ± 0.13 cm in series [4] (20 mg/kg po). The “Wheal Intensity, % Δ” value in series [4] (10 mg/kg po) was found to be 33%; in series [4] (20 mg/kg po), 38%. The “Wheal Intensity, Response (Mean ± S.E.M.)” value in series [4] (10 mg/kg po) came out at 1.65 ± 0.20; in [4] (20 mg/kg po), 1.18 ± 0.21. Besides, the “antiallergy activity, in words” value in series [4] is “effective antiallergy agents”. The inhibition in vivo at 5 mg/kg in series [5] (setting [7]) stood at 55%; in [5] (setting [8]), 68%. Moreover, the inhibition in vivo at 75 mg/kg in series [5] (setting [7]) is 70%. Further, in series [5] (setting [8]), the inhibition in vivo at 2.5 mg/kg stood at 72%. Also, the “antiallergy effectiveness, in words” value in series [5] (rat, comparison with 4390) is listed as “about as effective as the corresponding 3-isobutyl compound (4390)”.

For `COC(=O)n1c(C)nc2c1c(=O)n(C)c(=O)n2CC(C)C` [Compound 4390, 1,8-dimethyl-3-isobutylxanthine-7-carboxylic acid, methyl ester], in series [2], the EC (maximum relaxation) amounted to 1000 µM. For the same compound, the inhibition in vivo at 10 mg/kg in series [1] (0.5 h) was found to be 49%; in [1] (1 h), 86%; in series [1] (6 h) it was 79%; in [1] (10 h), 48%. The lethal in [1] (guinea pig, 20 mpK po) is given as 1/2. Besides, the “onset and duration of action, in words” value in series [1] (setting [6]) was “effective at lower doses and for longer duration”. Further, the LD50 was 25.2 mg/kg in “in vivo” (guinea pig, po); 9.1 mg/kg in the series “in vivo” (in vivo, rat, ip); 33.5 mg/kg in the series “in vivo” (in vivo, rat, po); 27.6 mg/kg in the series “LD50 mouse”. Besides, the “cardiopulmonary / bronchodilator activity in the dog, in words” value in series [3] is “significantly reduce the decrease in pulmonary compliance and increase in pulmonary resistance due to histamine administration”. Besides, in [4] (20 mg/kg po), the “Wheal Diameter, % Δ” value is listed as 60%. In addition, in [4] (20 mg/kg po), the “Wheal Diameter, Response (Mean ± S.E.M.)” value worked out at 0.74 ± 0.21 cm. The “Wheal Intensity, % Δ” value in series [4] (20 mg/kg po) came to 53%. For the same compound, the “Wheal Intensity, Response (Mean ± S.E.M.)” value in series [4] (20 mg/kg po) came to 1.10 ± 0.23. For the same compound, the “antiallergy activity, in words” value in series [4] was “effective antiallergy agents”. In series [5] (setting [7]), the inhibition in vivo at 2 mg/kg was found to be 60%. In [5] (setting [7]), the inhibition in vivo at 4 mg/kg worked out at 52%. In addition, the inhibition in vivo at 2.5 mg/kg in [5] (setting [8]) is 77%.

A word on the LD50: it is the dose at which mortality reaches 50%. Low readings indicate a more toxic substance, high ones a less toxic substance.
